US6831075B2, “Heterocyclic substituted pyrazolones” (Cephalon, Inc., priority 1999, dated 2004)

Legend:
Type in all cases: biochemical
[1] = molecular target: T1, baculoviral GST-MLK1KD (Homo sapiens, UniProt P80192); assay: Mixed Lineage Kinase-1 inhibition assay (Millipore Multiscreen TCA in-plate, 32P); conditions: for MLK-1 Kinase % inhibition @ 1 uM: 1 uM compound, 60 μM ATP; for inhibition at 1 µM: read-out: MLK-1 Kinase % inhibition @ 1 uM
T1 construct: 1 μg/ml of baculoviral GST-MLK1KD; GST (N); host or cells: baculovirus expression system
T1 sequence (P80192 144-412 limits assumed): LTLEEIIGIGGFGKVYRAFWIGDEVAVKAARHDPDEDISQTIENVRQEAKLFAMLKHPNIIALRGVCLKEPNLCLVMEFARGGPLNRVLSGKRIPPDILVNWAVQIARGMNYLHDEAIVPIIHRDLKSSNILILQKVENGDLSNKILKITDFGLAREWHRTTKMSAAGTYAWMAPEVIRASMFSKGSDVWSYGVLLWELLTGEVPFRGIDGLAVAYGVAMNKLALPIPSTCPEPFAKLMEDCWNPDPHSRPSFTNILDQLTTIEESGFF
Experimental: Inhibition of Mixed Lineage Kinase-1 Activity
The kinase activity of MLK1 was assessed using the Millipore Multiscreen TCA “in-plate” format as described for protein kinase C (Pitt & Lee, J. Biomol. Screening, 1: 47-51, 1996). Briefly, each 50-μl assay mixture contained 20 mM Hepes, pH 7.0, 1 mM EGTA, 10 mM MgCl2, 1 mM DTT, 25 mM β-glycerophosphate, 60 μM ATP, 0.25 μCi [γ-^32P]ATP, 0.1% BSA, 500 μg/ml myelin basic protein (UBI #13-104), 2% DMSO, 1 μM of test compound, and 1 μg/ml of baculoviral GST-MLK1KD. Samples were incubated for 15 min at 37° C. The reaction was stopped by adding ice cold 50% TCA and the protein were allowed to precipitate for 30 min at 4° C. The plates were then washed with ice cold 25% TCA. Supermix scintillation cocktail was added, and the plates were allowed to equilibrate for 1-2 hours prior to counting using the Wallac MicroBeta 1450 PLUS scintillation counter.

[2] = molecular target: T2, baculovirus-expressed human trkA cytoplasmic domain (Homo sapiens, UniProt P04629); assay: trkA tyrosine kinase inhibition assay (ELISA-based); conditions: 1 uM compound; 40 μM ATP
T2 construct: baculovirus-expressed human trkA cytoplasmic domain; host or cells: baculovirus expression system
T2 sequence (P04629 440-796 limits assumed): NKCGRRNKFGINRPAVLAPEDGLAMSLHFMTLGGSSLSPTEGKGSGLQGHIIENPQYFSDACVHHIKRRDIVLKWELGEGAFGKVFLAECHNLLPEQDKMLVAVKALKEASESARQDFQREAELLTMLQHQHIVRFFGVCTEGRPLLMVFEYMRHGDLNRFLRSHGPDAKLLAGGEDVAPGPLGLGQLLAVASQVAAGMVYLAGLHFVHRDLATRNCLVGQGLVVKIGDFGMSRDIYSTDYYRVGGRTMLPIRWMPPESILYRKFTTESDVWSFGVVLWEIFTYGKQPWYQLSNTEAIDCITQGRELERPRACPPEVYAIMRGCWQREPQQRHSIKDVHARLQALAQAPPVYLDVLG
Experimental: Inhibition of trkA Tyrosine Kinase Activity
Selected heterocyclic substituted pyrazolones were tested for their ability to inhibit the kinase activity of baculovirus-expressed human trkA cytoplasmic domain using an ELISA-based assay as previously described (Angeles et al., Anal. Biochem. 236: 49-55, 1996). Briefly, a 96-well microtiter plate was coated with substrate solution (recombinant human phospholipase C-γl/glutathione S-transferase fusion protein (Rotin et al., EMBO J., 11: 559-567, 1992). Inhibition studies were performed in 100 μl assay mixtures containing 50 mM Hepes, pH 7.4, 40 μM ATP, 10 mM MnCl2, 0.1% BSA, 2% DMSO, and various concentrations of inhibitor. The reaction was initiated by addition of trkA kinase and allowed to proceed for 15 minutes at 37° C. An antibody to phosphotyrosine (UBI) was then added, followed by a secondary enzyme-conjugated antibody, alkaline phosphatase-labelled goat anti-mouse IgG (Bio-Rad). The activity of the bound enzyme was measured via an amplified detection system (Gibco-BRL). Inhibition data were analyzed using the sigmoidal dose-response (variable slope) equation in GraphPad Prism.

[3] = molecular target: T3, baculoviral GST-MLK2KDLZ (Homo sapiens, UniProt Q02779); assay: Mixed Lineage Kinase-2 inhibition assay (Millipore Multiscreen plate, 32P); conditions: 1 uM compound, 100 μM ATP; for inhibition at 1 µM: read-out: MLK-2 Kinase % inhibition @ 1 uM
T3 construct: 3 μg/ml of baculoviral GST-MLK2KDLZ; GST (N); host or cells: baculovirus expression system
T3 sequence (Q02779 98-440 limits assumed): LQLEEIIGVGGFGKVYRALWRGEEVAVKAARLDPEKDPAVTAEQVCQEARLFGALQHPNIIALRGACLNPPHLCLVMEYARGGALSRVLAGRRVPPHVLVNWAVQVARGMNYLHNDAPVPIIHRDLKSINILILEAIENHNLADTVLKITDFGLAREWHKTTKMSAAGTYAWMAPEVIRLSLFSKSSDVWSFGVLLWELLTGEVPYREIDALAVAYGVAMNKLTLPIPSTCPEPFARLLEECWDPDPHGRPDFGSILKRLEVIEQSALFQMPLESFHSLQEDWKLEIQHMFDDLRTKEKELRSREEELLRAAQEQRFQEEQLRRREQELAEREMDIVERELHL
Experimental: Inhibition of Mixed Lineage Kinase-2 Activity
Assays were performed using the Millipore Multiscreen plate format as described for MLK1. Each 50-μl assay mixture contained 20 mM Hepes, pH 7, 1 mM EGTA, 10 mM MgCl2, 1 mM DTT, 25 mM β-glycerophosphate, 100 μM ATP, 0.25 μCi [γ-^32P]ATP, 0.1% BSA, 500 μg/ml myelin basic protein (UBI #13-104), 2% DMSO, various concentrations of test compound, and 3 μg/ml of baculoviral GST-MLK2KDLZ. Samples were incubated for 15 min. at 37° C. The reaction was stopped by adding ice cold 50% TCA and the proteins were allowed to precipitate for 30 min at 4° C. The plates were then washed with ice cold 25% TCA Supermix scintillation cocktail was added, and the plates were allowed to equilibrate for 1-2 hours prior to counting.

Compound | MLK-1 Kinase % inhibition @ 1 uM [1] | trkA % inhibition @ 1 uM [2] | MLK-2 Kinase % inhibition @ 1 uM [3] | inhibition at 1 µM [1] | inhibition at 1 µM [2] | inhibition at 1 µM [3]
O=C1NN=C(c2cccs2)C1=Cc1c[nH]c2ccccc12 [Compound 62] | 15% | 45% | −21% |  |  | 
CN(C)c1ccc(C=C2C(=O)NN=C2c2ccco2)cc1 [Compound 52] | 5% | 10% | 5% |  |  | 
O=C1NN=C(c2ccoc2)C1=Cc1ncc[nH]1 [Compound 15] | −3% | 15% | −12% |  |  | 
O=C1NN=C(c2ccoc2)C1=CC=C(c1ccccc1)c1ccccc1 [Compound 4] | 9% | 53% | −10% |  |  | 
CCc1c(C=C2C(=O)NN=C2c2ccoc2)[nH]c(C(=O)OCc2ccccc2)c1C [Compound 5] | 14% | 2% | 9% |  |  | 
O=C1NN=C(c2nccs2)C1=Cc1cn(Cc2ccccc2)c2ccccc12 [Compound 70] | 21% | 32% | 5% |  |  | 
O=C1NN=C(c2ccco2)C1=Cc1c[nH]c2ccc(F)cc12 [Compound 48] | 2% | 47% | 3% |  |  | 
Cc1cc(C)c(C=C2C(=O)NN=C2c2ccoc2)[nH]1 [Compound 1] | 12% | 24% | 7% |  |  | 
O=C1NN=C(c2ccco2)C1=Cc1c[nH]c2ccc(Cl)cc12 [Compound 49] | −10% | 56% | 3% |  |  | 
Cc1cc(C)c(C=C2C(=O)NN=C2c2csc(-c3ccccc3)n2)[nH]1 [Compound 40] | 33% | 27% | −8% |  |  | 
Cn1cc(C=C2C(=O)NN=C2c2ccco2)c2ccccc21 [Compound 45] | 24% | 39% | −22% |  |  | 
Cc1cc(C)c(C=C2C(=O)NN=C2c2ccco2)[nH]1 [Compound 28, 4-[(3,5-dimethylpyrrol-2-yl)methylene]-3-(2-furyl)-2-pyrazolin-5-one] |  |  |  | 2% | 34% | 10%
COc1ccc2[nH]cc(C=C3C(=O)NN=C3c3ccoc3)c2c1 [Compound 11] | 21% | 65% | 7% |  |  | 
Cc1cccc2c(C=C3C(=O)NN=C3c3ccoc3)c[nH]c12 [Compound 22] | 1% | 44% | −13% |  |  | 
N#CCCn1cc(C=C2C(=O)NN=C2c2ccco2)c2ccccc21 [Compound 67] | 3% | 40% | −1% |  |  | 
O=C1NN=C(c2ccco2)C1=Cc1c[nH]c2ccc(OCc3ccccc3)cc12 [Compound 43] | 13% | 42% | 2% |  |  | 
COc1ccc2[nH]cc(C=C3C(=O)NN=C3c3ccco3)c2c1 [Compound 51] | 26% | 56% | 3% |  |  | 
Cn1cc(C=C2C(=O)NN=C2c2cc3ccccc3o2)c2ccccc21 [Compound 59] | 41% | 40% | −8% |  |  | 
Cc1ccc2c(C=C3C(=O)NN=C3c3ccn(C)c3)c[nH]c2c1 [Compound 33] | 8% | 32% | −13% |  |  | 
N#CCCn1cc(C=C2C(=O)NN=C2c2nccs2)c2ccccc21 [Compound 64] | 10% | 10% | 9% |  |  | 
O=C1NN=C(c2cccs2)C1=Cc1cn(Cc2ccccc2)c2ccccc12 [Compound 75] | 5% | 23% | −5% |  |  | 
Cc1cc(C)c(C=C2C(=O)NN=C2c2cnccn2)[nH]1 [Compound 74, 4-[(3,5-dimethylpyrrol-2-yl)methylene]-3-pyrazin-2-yl-2-pyrazolin-5-one] |  |  |  | 44% | 53% | 17%
Cn1ccc(C2=NNC(=O)C2=Cc2c[nH]c3ccc(Cl)cc23)c1 [Compound 35] | 7% | 23% | −15% |  |  | 
O=C1NN=C(c2ccco2)C1=Cc1c[nH]c2cccc(OCc3ccccc3)c12 [Compound 44] | 25% | 23% | −3% |  |  | 
Cc1nc[nH]c1C=C1C(=O)NN=C1c1ccco1 [Compound 53] | 7% | 20% | −13% |  |  | 
Cc1[nH]c(C=C2C(=O)NN=C2c2ccoc2)c(Br)c1Br [Compound 8] | 15% | 20% | 0% |  |  | 
Cc1cc(C)c(C=C2C(=O)NN=C2c2cccnc2)[nH]1 [Compound 10] | 22% | 26% | −9% |  |  | 
Cc1cc(C)c(C=C2C(=O)NN=C2c2cccs2)[nH]1 [Compound 61] | 8% | 35% | −4% |  |  | 
O=C1NN=C(c2cccs2)C1=Cc1c[nH]c2ccccc12 [Compound 38, 4-(indol-3-ylmethylene)-3-(2-thienyl)-2-pyrazolin-5-one] |  |  |  | 16% | 40% | 2%
Cc1cc(C)c(C=C2C(=O)NN=C2C2c3ccccc3Oc3ccccc32)[nH]1 [Compound 2] | −8% | 39% | −10% |  |  | 
